Assay: xn = mol fraction of the nth substance listed
Details: 101 kPa, Liquid; for mass density: Vibrating tube method

NCCO.O=CO [2-hydroxyethylammonium formate] + CO
Details | mass density [kg/m3] | speed of sound [m/s]
305.65 K, x2 = 0 | – | 1690.8
305.65 K, x2 = 0.055 | – | 1708.1
305.65 K, x2 = 0.098 | – | 1696.5
305.65 K, x2 = 0.193 | – | 1665.8
305.65 K, x2 = 0.296 | – | 1628.2
305.65 K, x2 = 0.399 | – | 1584.1
305.65 K, x2 = 0.5 | – | 1532.8
305.65 K, x2 = 0.598 | – | 1474
305.65 K, x2 = 0.701 | – | 1403.2
305.65 K, x2 = 0.799 | – | 1318
305.65 K, x2 = 0.9 | – | 1213.2
305.65 K, x2 = 0.951 | – | 1148.9
308.15 K, x2 = 0 | 1169.39 | 1684.8
308.15 K, x2 = 0.055 | 1162.82 | 1702.9
308.15 K, x2 = 0.098 | 1156.3 | 1691.3
308.15 K, x2 = 0.193 | 1139.55 | 1660.5
308.15 K, x2 = 0.296 | 1118.84 | 1622.8
308.15 K, x2 = 0.399 | 1094.27 | 1578.5
308.15 K, x2 = 0.5 | 1065.38 | 1527.1
308.15 K, x2 = 0.598 | 1031.9 | 1468
308.15 K, x2 = 0.701 | 990.06 | 1396.8
308.15 K, x2 = 0.799 | 937.959 | 1311.2
308.15 K, x2 = 0.9 | 869.95 | 1206
308.15 K, x2 = 0.951 | 826.572 | 1141.2
310.65 K, x2 = 0 | 1167.62 | 1678.7
310.65 K, x2 = 0.055 | 1161.16 | 1697.8
310.65 K, x2 = 0.098 | 1154.64 | 1686.1
310.65 K, x2 = 0.193 | 1137.87 | 1655.3
310.65 K, x2 = 0.296 | 1117.13 | 1617.4
310.65 K, x2 = 0.399 | 1092.53 | 1573
310.65 K, x2 = 0.5 | 1063.59 | 1521.4
310.65 K, x2 = 0.598 | 1030.06 | 1462
310.65 K, x2 = 0.701 | 988.146 | 1390.5
310.65 K, x2 = 0.799 | 935.95 | 1304.5
310.65 K, x2 = 0.9 | 867.803 | 1198.7
310.65 K, x2 = 0.951 | 824.316 | 1133.6
313.15 K, x2 = 0 | 1165.84 | 1672.7
313.15 K, x2 = 0.055 | 1159.51 | 1692.7
313.15 K, x2 = 0.098 | 1152.98 | 1681
313.15 K, x2 = 0.193 | 1136.19 | 1650
313.15 K, x2 = 0.296 | 1115.42 | 1612
313.15 K, x2 = 0.399 | 1090.78 | 1567.5
313.15 K, x2 = 0.5 | 1061.81 | 1515.6
313.15 K, x2 = 0.598 | 1028.22 | 1456
313.15 K, x2 = 0.701 | 986.228 | 1384.2
313.15 K, x2 = 0.799 | 933.936 | 1297.8
313.15 K, x2 = 0.9 | 865.647 | 1191.4
313.15 K, x2 = 0.951 | 822.053 | 1125.9
315.65 K, x2 = 0 | 1164.06 | 1666.7
315.65 K, x2 = 0.055 | 1157.86 | 1687.6
315.65 K, x2 = 0.098 | 1151.33 | 1675.8
315.65 K, x2 = 0.193 | 1134.51 | 1644.8
315.65 K, x2 = 0.296 | 1113.71 | 1606.7
315.65 K, x2 = 0.399 | 1089.03 | 1561.9
315.65 K, x2 = 0.5 | 1060.02 | 1509.9
315.65 K, x2 = 0.598 | 1026.37 | 1450.1
315.65 K, x2 = 0.701 | 984.31 | 1377.9
315.65 K, x2 = 0.799 | 931.919 | 1291.2
315.65 K, x2 = 0.9 | 863.489 | 1184.2
315.65 K, x2 = 0.951 | 819.788 | 1118.4
318.15 K, x2 = 0 | 1162.29 | 1660.8
318.15 K, x2 = 0.055 | 1156.21 | 1682.5
318.15 K, x2 = 0.098 | 1149.67 | 1670.7
318.15 K, x2 = 0.193 | 1132.83 | 1639.5
318.15 K, x2 = 0.296 | 1112 | 1601.3
318.15 K, x2 = 0.399 | 1087.29 | 1556.4
318.15 K, x2 = 0.5 | 1058.22 | 1504.2
318.15 K, x2 = 0.598 | 1024.52 | 1444.2
318.15 K, x2 = 0.701 | 982.388 | 1371.7
318.15 K, x2 = 0.799 | 929.9 | 1284.6
318.15 K, x2 = 0.9 | 861.326 | 1177.1
318.15 K, x2 = 0.951 | 817.518 | 1110.9
320.65 K, x2 = 0 | 1160.51 | 1654.8
320.65 K, x2 = 0.055 | 1154.57 | 1677.4
320.65 K, x2 = 0.098 | 1148.03 | 1665.5
320.65 K, x2 = 0.193 | 1131.15 | 1634.3
320.65 K, x2 = 0.296 | 1110.29 | 1596
320.65 K, x2 = 0.399 | 1085.54 | 1550.9
320.65 K, x2 = 0.5 | 1056.43 | 1498.5
320.65 K, x2 = 0.598 | 1022.67 | 1438.3
320.65 K, x2 = 0.701 | 980.467 | 1365.5
320.65 K, x2 = 0.799 | 927.874 | 1278
320.65 K, x2 = 0.9 | 859.158 | 1170
320.65 K, x2 = 0.951 | 815.245 | 1103.5
323.15 K, x2 = 0 | 1158.73 | 1648.9
323.15 K, x2 = 0.055 | 1152.94 | 1672.4
323.15 K, x2 = 0.098 | 1146.39 | 1660.5
323.15 K, x2 = 0.193 | 1129.49 | 1629.2
323.15 K, x2 = 0.296 | 1108.59 | 1590.7
323.15 K, x2 = 0.399 | 1083.8 | 1545.5
323.15 K, x2 = 0.5 | 1054.64 | 1492.9
323.15 K, x2 = 0.598 | 1020.83 | 1432.5
323.15 K, x2 = 0.701 | 978.549 | 1359.5
323.15 K, x2 = 0.799 | 925.853 | 1271.4
323.15 K, x2 = 0.9 | 856.995 | 1163
323.15 K, x2 = 0.951 | 812.98 | 1096.1
